≈ marks a conversion by molar mass, not a printed value.

For assay [1], the target named is T1, Sa-ClpP (Staphylococcus aureus, UniProt Q2G036).
T1 construct: made in house; host or cells: E. coli BL21 (DE3)
Put plainly: ClpP activation, EnzCheck Protease Assay with Bodipy-FL casein (second described method). It counts as biochemical, S. aureus. Particulars: read-out: ClpP Activation EC50 (converted). Put shortly:
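Sa-ClpP (2 μM in master mix) with Bodipy-FL casein (2 μM in master mix) in Tris-HCl pH 8.0, 0.01% Triton X-100, compounds in 2% DMSO, triplicate. Fluorescence (ex 485/em 520 nm) followed 30 min; degradation slopes normalized to ADEP4 and DMSO controls, EC50 and % activation by four-parameter fit.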

Another assay has as its target T2, S. aureus ClpP (Sa-ClpP) (Staphylococcus aureus, UniProt Q2G036).
T2 construct: made in house; host or cells: E. coli BL21 (DE3)
Briefly: ClpP activation, casein-BODIPY digestion assay (first described method). The format is biochemical. Particulars: first described ClpP activation assay (**); 10 μM saClpP, 25 μg/ml BODIPY FL casein, 37° C.; read-out: ClpP Activation EC50. Put shortly: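 Purified E. coli-expressed Sa-ClpP (10 μM) with 25 μg/ml BODIPY FL casein and 0-100 μM compound in 50 mM Tris pH 8, 200 mM KCl, 1 mM TCEP at 37° C. Fluorescence (ex 485/em 528 nm) read every 5 min over 45 min; velocities fit to dose-response for EC50 of 50% activation, in triplicate.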

The subject of another assay is S. pyogenes ATCC 700294. Put plainly: Minimal inhibitory concentration, microbroth dilution. Particulars: Streptococcus pyogenes, ATCC700294, read-out: Minimal Inhibitory Concentration S. pyogenes ATCC 700294. The format is cell-based. Put shortly: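 Twofold serial dilutions in broth per CLSI M7-A7 microbroth dilution, incubated aerobically overnight at 37° C. MIC read visually as lowest concentration preventing bacterial growth.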
Background: Dilution methods test growth across graded concentrations, often in twofold steps.

Assay [2] addresses T1, Sa-ClpP. Put plainly: ADEP displacement fluorescence polarization assay. The format is binding, S. aureus. Particulars: 1 μM Sa-ClpP, 50 nM FP probe ADEP 2591; read-out: ADEP Displacement IC50. Put shortly: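 Displacement of TAMRA-labelled ADEP 2591 probe (50 nM) from 1 μM Sa-ClpP, pre-equilibrated 1 h in Tris·HCl pH 8.0 with 2% DMSO, then 120 min at room temperature with compound, triplicate. Polarization (mP) read ex 530/em 579 nm, normalised to 20 μM ADEP 2378 and DMSO controls; four-parameter fit.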
A general note: In fluorescence polarisation assays a small probe gives low polarisation when free and higher when bound to something large.

T1 sequence (Q2G036 whole entry): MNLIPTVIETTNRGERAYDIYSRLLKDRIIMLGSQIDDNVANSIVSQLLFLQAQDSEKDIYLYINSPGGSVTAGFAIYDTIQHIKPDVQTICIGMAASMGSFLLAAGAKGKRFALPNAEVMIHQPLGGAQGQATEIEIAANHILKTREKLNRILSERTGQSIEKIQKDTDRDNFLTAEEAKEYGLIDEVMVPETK
T2 sequence (Q2G036 whole entry): as above

`C[C@@H]1C[C@H]2C(=O)OC[C@H](NC(=O)[C@H](Cc3ccccc3)NC(=O)Nc3ccccc3Cl)C(=O)N3CCC[C@H]3C(=O)N3CCCC[C@H]3C(=O)N[C@@H](C)C(=O)N2C1` [Compound 7, (S)-2-(3-(2-Chlorophenyl)Ureido)-N-((2R,6S,8aS,14aS,20S,23aS)-2,6-Dimethyl-5,8,14,19,23-Pentaoxooctadecahydro-1H,5H,14H,19H-Pyrido[2,1-I]Dipyrrolo[2,1-C:2′,1′-L][1]Oxa[4,7,10,13]Tetraazacyclohexadecin-20-Yl)-3-Phenylpropanamide]: the results for the EC50 at Sa-ClpP [1] and on S. aureus ClpP (Sa-ClpP) were 1.6 µM and 34.6 ± 6.8 µM, respectively. Besides, the MIC with S. pyogenes ATCC 700294 amounted to 3.13 µM (≈ 2.44 µg/mL). Further, the IC50 on Sa-ClpP [2] was 130 ± 11.3 µM.

As for `C[C@@H]1C[C@H]2C(=O)OC[C@H](NC(=O)[C@H](Cc3ccccc3)NC(=O)Nc3ccc4c(c3)CCN4C)C(=O)N3CCC[C@H]3C(=O)N3CCCC[C@H]3C(=O)N[C@@H](C)C(=O)N2C1` [Compound 11, (S)—N-((2R,6S,8aS,14aS,20S,23aS)-2,6-Dimethyl-5,8,14,19,23-Pentaoxooctadecahydro-1H,5H,14H,19H-Pyrido[2,1-I]Dipyrrolo[2,1-C:2′,1′-L][1]Oxa[4,7,10,13]Tetraazacyclohexadecin-20-Yl)-2-(3-(1-Methylindolin-5-Yl)Ureido)-3-Phenylpropanamide], the EC50 on Sa-ClpP [1] was 1.1 µM; on S. aureus ClpP (Sa-ClpP), 2.3 ± 0.3 µM. Further, the MIC with S. pyogenes ATCC 700294 amounted to 0.6 µM (≈ 0.479 µg/mL). For the same compound, on Sa-ClpP [2], the IC50 worked out at 4.45 ± 0.3 µM.

Consider `C[C@H]1C[C@H]2C(=O)O[C@@H](C)[C@H](NC(=O)[C@H](Cc3cc(F)cc(F)c3)NC(=O)Nc3ccc(C(F)(F)F)cc3)C(=O)N3CCC[C@H]3C(=O)N3CCCC[C@H]3C(=O)N[C@@H](C)C(=O)N2C1` [Compound 19, (S)-3-(3,5-Difluorophenyl)-2-(3-(4-(Trifluoromethyl)Phenyl)Ureido)-N-((2R,6S,8aS,14aS,20S,21S,23aS)-2,6,21-Trimethyl-5,8,14,19,23-Pentaoxooctadecahydro-1H,5H,14H,19H-Pyrido[2,1-I]Dipyrrolo[2,1-C:2′,1′-L][1]Oxa[4,7,10,13]Tetraazacyclohexadecin-20-Yl)Propanamide], for which the EC50 at Sa-ClpP [1] is 0.33 µM; at S. aureus ClpP (Sa-ClpP) it was 3.2 ± 0.1 µM. Besides, the MIC with S. pyogenes ATCC 700294 is 0.4 µM (≈ 0.345 µg/mL). Moreover, at Sa-ClpP [2], the IC50 was 5.7 ± 0.3 µM.

As usually defined, the EC50 is the midpoint of the concentration-response curve. For orientation: IC50 means the concentration needed to halve the response being measured.

The values above are taken from patent US9879050B2, “Substituted urea depsipeptide analogs as activators of the CLPP endopeptidase” (priority 2013, dated 2018).
